Data from patent US11254686B1 (Corvus Pharmaceuticals, Inc., priority 2017, dated 2022).

Legend:
[1] = molecular target: adenosine A2B receptor (Homo sapiens (Human), UniProt P29275); assay: Adenosine receptor activity assay (Table 1), A2B activity; type: biochemical; conditions: for Ratio: A2A activity to A2B activity (A2A/A2B); for IC50: read-out: Ave A2B cAMP IC50
[2] = molecular target: adenosine A2A receptor (Homo sapiens (Human), UniProt P29274); assay: Adenosine receptor activity assay (Table 1), A2A activity; type: biochemical; conditions: read-out: Ave A2A cAMP IC50
adenosine A2A receptor, sequence (P29274 whole entry): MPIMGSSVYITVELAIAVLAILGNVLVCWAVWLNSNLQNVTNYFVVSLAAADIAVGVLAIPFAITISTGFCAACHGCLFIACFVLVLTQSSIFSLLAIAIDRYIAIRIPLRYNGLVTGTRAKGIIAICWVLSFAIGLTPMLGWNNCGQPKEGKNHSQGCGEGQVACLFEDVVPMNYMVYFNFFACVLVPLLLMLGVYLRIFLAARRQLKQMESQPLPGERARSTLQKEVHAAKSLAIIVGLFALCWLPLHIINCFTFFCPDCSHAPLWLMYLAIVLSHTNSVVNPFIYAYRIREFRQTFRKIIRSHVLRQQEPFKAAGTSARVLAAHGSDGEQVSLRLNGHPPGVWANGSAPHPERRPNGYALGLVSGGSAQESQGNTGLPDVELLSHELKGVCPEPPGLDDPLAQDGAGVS

adenosine A2B receptor, sequence (P29275 whole entry): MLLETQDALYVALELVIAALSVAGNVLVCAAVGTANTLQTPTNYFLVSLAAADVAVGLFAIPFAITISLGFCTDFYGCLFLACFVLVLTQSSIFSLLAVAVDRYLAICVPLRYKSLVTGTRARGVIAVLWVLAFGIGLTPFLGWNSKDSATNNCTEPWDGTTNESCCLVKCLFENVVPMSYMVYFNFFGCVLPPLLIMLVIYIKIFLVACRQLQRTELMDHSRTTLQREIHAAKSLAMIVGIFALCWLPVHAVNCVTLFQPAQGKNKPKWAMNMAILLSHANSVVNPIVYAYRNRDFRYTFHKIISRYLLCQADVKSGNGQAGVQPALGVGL

Structure (SMILES) | Ratio [1] | IC50 [1] [nM] | IC50 [2] [nM]
O=C(c1nc(NCc2ccc(C(F)(F)F)nc2)nc2ccsc12)N1CC[C@H](O)C1 [Example Z75, (S)-(3-Hydroxypyrrolidin-1-yl)(2-(((6-(trifluoromethyl)pyridin-3-yl)methyl)amino)thieno[3,2-d]pyrimidin-4-yl)methanone] | 1.00 | > 500 | > 500
O=C(c1nc(NCc2ccc(C(F)(F)F)nc2)nc2ccsc12)N1CCCC1 [Example Z76, Pyrrolidin-1-yl(2-(((6-(trifluoromethyl)pyridin-3-yl)methyl)amino)thieno[3,2-d]pyrimidin-4-yl)methanone] | 0.22 | > 500 | 100 to 500
O=C(c1nc(NCc2cccc(F)c2)nc2ccsc12)N1CCN(CCCc2ccccc2)CC1 [Example Z80, (2-((3-Fluorobenzyl)amino)thieno[3,2-d]pyrimidin-4-yl)(4-(3-phenylpropyl)piperazin-1-yl)methanone] | 1.00 | > 500 | > 500
O=C(NCCn1ccnc1)c1nc(NCc2cncc(F)c2)nc2ccsc12 [Example Z85, N-(2-(1H-Imidazol-1-yl)ethyl)-2-(((5-fluoropyridin-3-yl)methyl)amino)thieno[3,2-d]pyrimidine-4-carboxamide] | 1.04 | > 500 | > 500
Cc1ncccc1CNC(=O)c1nc(NCc2cccnc2C)nc2ccsc12 [Example Z88, N-((2-Methylpyridin-3-yl)methyl)-2-(((2-methylpyridin-3-yl)methyl)amino)thieno[3,2-d]pyrimidine-4-carboxamide] | 1.00 | > 500 | > 500
C[C@H](Nc1nc(C(=O)NCc2cncc(C#N)c2)c2sccc2n1)c1ccccn1 [Example Z102, (S)—N-((5-Cyanopyridin-3-yl)methyl)-2-((1-(pyridin-2-yl)ethyl)amino)thieno[3,2-d]pyrimidine-4-carboxamide] | 2.24 | 100 to 500 | 100 to 500
O=C(c1nc(NCc2cccnc2)nc2ccsc12)N1CC[C@@H](O)C1 [Example Z103, (R)-(3-Hydroxypyrrolidin-1-yl)(2-((pyridin-3-ylmethyl)amino)thieno[3,2-d]pyrimidin-4-yl)methanone] | 3.68 | 100 to 500 | > 500
C[C@H](Nc1nc(C(=O)NCc2cncc(C#N)c2)c2sccc2n1)c1cccnc1 [Example Z104, (S)—N-((5-Cyanopyridin-3-yl)methyl)-2-((1-(pyridin-3-yl)ethyl)amino)thieno[3,2-d]pyrimidine-4-carboxamide] | 0.50 | > 500 | 100 to 500
CC(C)(Nc1nc(C(=O)N2CCCC2)c2sccc2n1)c1cccnc1 [Example Z112, (2-((2-(Pyridin-3-yl)propan-2-yl)amino)thieno[3,2-d]pyrimidin-4-yl)(pyrrolidin-1-yl)methanone] | 7.09 | 100 to 500 | > 500
COc1cncc(CNc2nc(C(=O)N3CCCC3)c3sccc3n2)c1 [Example Z114, (2-(((5-Methoxypyridin-3-yl)methyl)amino)thieno[3,2-d]pyrimidin-4-yl)(pyrrolidin-1-yl)methanone] | 5.15 | 100 to 500 | > 500
COc1cncc(CNc2nc(C(=O)N3CCC3)c3sccc3n2)c1 [Example Z116, Azetidin-1-yl(2-(((5-methoxypyridin-3-yl)methyl)amino)thieno[3,2-d]pyrimidin-4-yl)methanone] | 4.17 | 100 to 500 | > 500
COc1cncc(CNc2nc(C(=O)N3CC(O)C3)c3sccc3n2)c1 [Example Z119, (3-Hydroxyazetidin-1-yl)(2-(((5-methoxypyridin-3-yl)methyl)amino)thieno[3,2-d]pyrimidin-4-yl)methanone] | 2.08 | 100 to 500 | > 500
COCC(Nc1nc(C(=O)N2CC[C@H](O)C2)c2sccc2n1)c1cccnc1 (stereo partly drawn) [Example Z124, ((S)-3-Hydroxypyrrolidin-1-yl)(2-((2-methoxy-1-(pyridin-3-yl)ethyl)amino)thieno[3,2-d]pyrimidin-4-yl)methanone] | 2.13 | 100 to 500 | > 500
CC(C)(C)OC(=O)N1CCN(C(=O)c2nc(NCc3cncc(F)c3)nc3ccsc23)C1 [Example Z135, tert-Butyl 3-(2-(((5-fluoropyridin-3-yl)methyl)amino)thieno[3,2-d]pyrimidine-4-carbonyl)imidazolidine-1-carboxylate] | 3.11 | 100 to 500 | > 500
C[C@H](Nc1nc(C(=O)N2CCN(C(=O)OC(C)(C)C)C2)c2sccc2n1)c1cccnc1 [Example Z140, tert-Butyl (S)-3-(2-((1-(pyridin-3-yl)ethyl)amino)thieno[3,2-d]pyrimidine-4-carbonyl)imidazolidine-1-carboxylate] | 1.36 | > 500 | > 500
NC(=O)c1cncc(CNc2nc(C(=O)N3CCCC3)c3sccc3n2)c1 [Example Z142, 5-(((4-(Pyrrolidine-1-carbonyl)thieno[3,2-d]pyrimidin-2-yl)amino)methyl)nicotinamide] | 2.76 | > 500 | > 500

More lines, now with the values ahead:

Ratio [1] | IC50 [1] [nM] | IC50 [2] [nM] | Structure (SMILES)
3.77 | 100 to 500 | 100 to 500 | CC(CNC(=O)c1nc(N[C@@H](C)c2ccccn2)nc2ccsc12)Oc1cccnc1 (stereo partly drawn) [Example Z77, 2-(((S)-1-(Pyridin-2-yl)ethyl)amino)-N-(2-(pyridin-3-yloxy)propyl)thieno[3,2-d]pyrimidine-4-carboxamide]
2.02 | 50 to 100 | 100 to 500 | O=C(NCc1ccccn1)c1nc(NCc2ccccn2)nc2ccsc12 [Example Z78, N-(Pyridin-2-ylmethyl)-2-((pyridin-2-ylmethyl)amino)thieno[3,2-d]pyrimidine-4-carboxamide]
1.20 | 50 to 100 | 100 to 500 | C[C@H](Nc1nc(C(=O)NCc2ccc(C(F)(F)F)nc2)c2sccc2n1)c1ccccn1 [Example Z79, (S)-2-((1-(Pyridin-2-yl)ethyl)amino)-N-((6-(trifluoromethyl)pyridin-3-yl)methyl)thieno[3,2-d]pyrimidine-4-carboxamide]
2.77 | 50 to 100 | 100 to 500 | O=C(c1nc(NCc2cccc(F)c2)nc2ccsc12)N1CC[C@@H](O)C1 [Example Z81, (R)-(2-((3-Fluorobenzyl)amino)thieno[3,2-d]pyrimidin-4-yl)(3-hydroxypyrrolidin-1-yl)methanone]
1.03 | 50 to 100 | 50 to 100 | COc1ccc(CNC(=O)c2nc(NCc3cccc(F)c3)nc3ccsc23)cn1 [Example Z82, 2-((3-Fluorobenzyl)amino)-N-((6-methoxypyridin-3-yl)methyl)thieno[3,2-d]pyrimidine-4-carboxamide]
1.00 | 100 to 500 | 100 to 500 | COc1ccc(CNC(=O)c2nc(NCc3cccnc3C)nc3ccsc23)cn1 [Example Z94, N-((6-Methoxypyridin-3-yl)methyl)-2-(((2-methylpyridin-3-yl)methyl)amino)thieno[3,2-d]pyrimidine-4-carboxamide]
22.37 | 10 to 50 | > 500 | CC1(O)CN(C(=O)c2nc(NCc3cncc(F)c3)nc3ccsc23)C1 [Example Z98, (2-(((5-Fluoropyridin-3-yl)methyl)amino)thieno[3,2-d]pyrimidin-4-yl)(3-hydroxy-3-methylazetidin-1-yl)methanone]
 | 10 to 50 | 100 to 500 | C[C@H](Nc1nc(C(=O)N2CC(C)(O)C2)c2sccc2n1)c1ccccn1 [Example Z101, (S)-(3-Hydroxy-3-methylazetidin-1-yl)(2-((1-(pyridin-2-yl)ethyl)amino)thieno[3,2-d]pyrimidin-4-yl)methanone]
2.95 | 10 to 50 | 100 to 500 | C[C@H](Nc1nc(C(=O)NCCO)c2sccc2n1)c1ccccn1 [Example Z106, (S)—N-(2-hydroxyethyl)-2-((1-(pyridin-2-yl)ethyl)amino)thieno[3,2-d]pyrimidine-4-carboxamide]
10.87 | 50 to 100 | > 500 | COc1cncc(CNc2nc(C(=O)N3CC(C)C3)c3sccc3n2)c1 [Example Z117, (2-(((5-Methoxypyridin-3-yl)methyl)amino)thieno[3,2-d]pyrimidin-4-yl)(3-methylazetidin-1-yl)methanone]
13.75 | 50 to 100 | > 500 | O=C(c1nc(NCc2cccc(Cl)c2)nc2ccsc12)N1CC[C@@H](O)C1 [Example Z118, (R)-(2-((3-Chlorobenzyl)amino)thieno[3,2-d]pyrimidin-4-yl)(3-hydroxypyrrolidin-1-yl)methanone]
13.39 | 10 to 50 | 100 to 500 | O=C(c1nc(NCc2cccc(Cl)c2)nc2ccsc12)N1CCCC1 [Example Z120, (2-((3-Chlorobenzyl)amino)thieno[3,2-d]pyrimidin-4-yl)(pyrrolidin-1-yl)methanone]
 | 10 to 50 | 100 to 500 | COCC(Nc1nc(C(=O)N2CCCC2)c2sccc2n1)c1cccnc1 (stereo not shown) [Example Z127, (2-((2-Methoxy-1-(pyridin-3-yl)ethyl)amino)thieno[3,2-d]pyrimidin-4-yl)(pyrrolidin-1-yl)methanone]
3.85 | 10 to 50 | 10 to 50 | CC1CCN1C(=O)c1nc(N[C@@H](C)c2ccccn2)nc2ccsc12 (stereo partly drawn) [Example Z133, (2-Methylazetidin-1-yl)(2-(((S)-1-(pyridin-2-yl)ethyl)amino)thieno[3,2-d]pyrimidin-4-yl)methanone]
11.51 | 50 to 100 | > 500 | COc1cc(F)cc(CNc2nc(C(=O)N3CC(C)(O)C3)c3sccc3n2)c1 [Example Z136, (2-((3-Fluoro-5-methoxybenzyl)amino)thieno[3,2-d]pyrimidin-4-yl)(3-hydroxy-3-methylazetidin-1-yl)methanone]
